{
  "source": "patent US20160220687A1",
  "about": "“METALLOPROTEINASE-CLEAVABLE ALPHA-AMANITIN-DENDRIMER CONJUGATES AND METHOD OF TREATING CANCER” (priority 2015, published 2016)",
  "origin": "cited, not measured here",
  "key": {"liver and kidney": {"system": "liver and kidney", "details": "intravenous or intraperitoneal administration"}, "B16F10 melanoma cells": {"system": "B16F10 melanoma cells", "details": "mice injected with B16F10 melanoma cells"}, "advanced gastric cancer": {"system": "advanced gastric cancer", "details": "patients with advanced gastric cancer, compared to placebo"}},
  "data": [
    {"compound": "CC[C@H](C)[C@@H]1NC(=O)CNC(=O)[C@@H]2Cc3c([nH]c4cc(O)ccc34)[S@+]([O-])C[C@H](NC(=O)CNC1=O)C(=O)N[C@@H](CC(N)=O)C(=O)N1C[C@H](O)C[C@H]1C(=O)N[C@@H]([C@@H](C)[C@@H](O)CO)C(=O)N2", "note": "[alpha-amanitin]", "values": [
      {"measurement": "pathological effects on the liver and kidney", "setting": "liver and kidney", "result": "serious pathological effects on the liver and kidney"}
    ]},
    {"compound": "TIMP1: an inhibitor of MMP9", "values": [
      {"measurement": "number of pulmonary metastases", "setting": "B16F10 melanoma cells", "result": "reduced"}
    ]},
    {"compound": "N#Cc1ccc(C(c2ccc(C#N)cc2)n2cncn2)cc1", "note": "[Letrozole]", "values": [
      {"measurement": "MMP2 and MMP9 levels", "setting": "MCF7 breast cancer cells", "result": "efficient reduction"}
    ]},
    {"compound": "CNC(=O)[C@@H](NC(=O)[C@H](CC(C)C)[C@H](O)C(=O)NO)C(C)(C)C", "note": "[Marimastat]", "values": [
      {"measurement": "disease free survival", "setting": "advanced gastric cancer", "result": "significant improvement"},
      {"measurement": "overall survival", "setting": "advanced gastric cancer", "result": "significant improvement"}
    ]}
  ]
}
